Experimental findings from US20150056702A1, “METHOD AND KIT FOR CULTURING STEM CELLS” (China Medical University, priority 2013, published 2015) are described below.

Structures are written as SMILES.

Holding throughout (assay type): cell-based, mouse
One experiment relates to Oct4. The experiment can be described thus: Real-time PCR, Oct4 gene expression in ES cells. As to conditions: for Oct4 gene expression level: ES cells, control group = 100%. The procedure: (§1) The following steps were conducted in order to culture ES cells: • (1) preparing a stem cell medium: DMEM+15% heat-inactivated FBS+NEAA (0.1 mM)+L-glutamine (2 mM)+β-mercaptoethanol (0.2 mM); • (2) preparing a BP-containing solution: dissolving BP into DMSO to form a BP-containing solution (100 mg/ml), and storing the solution at −20° C.; • (3) adding different amounts of the BP-containing solution in step (2) into the stem cell medium in step (1) to form different BP-containing mediums, wherein the amount of BP were about 5, 10, 20 or 40 μg per milliliter of the stem cell medium respectively (i.e. the experimental group mediums: BP5, BP10, BP20 and BP40); and • (4) using the BP-containing medium of in step (3) to culture a ES cell (retrieved from the embryos in the blastula stage of 129sv/J mice) at 37° C., 5% CO2 and 95% humidity on the feeder cells provided by Example 1.
(§2) An experimental group medium (BP5, BP10, BP20 or BP40) and a control group medium (without BP) were added respectively to perform the following steps. ES cells were cultured with an initial density of 1×10^4 per well in a 6-well culture dish. The medium was removed until the cells growth to be about 70 to 80% confluence, and then 1 ml TRIzol (Invitrogen) was added into each well. The cells were incubated for 5 minutes, and then was scraped by a spatula and placed into a 1.5 ml microtube to be lysed adequately. Chloroform (0.2 ml) was added into the microtubes. The mixture was shaken up and down for 15 seconds, and then incubated at room temperature for 2 to 3 minutes. Thereafter, the mixture was centrifuged at 12000 rpm at 4° C. for 15 minutes, and the supernatant was removed into another 1.5 ml microtube and isopropanol (0.5 ml) was added into the microtube with well mixing. The mixture was incubated at room temperature for 10 minutes and then centrifuged at 12000 rpm at 4° C. for 10 minutes. The supernatant was then removed. One ml of 70% ethanol containing DEPC.H2O was used to wash the remaining sediment. The sediment was centrifuged at 7500 rpm at 4° C. for 5 minutes. The supernatant was removed. The sediment was dried by vacuum suction. The dried samples were dissolved in about 0.01 to 0.02 ml of DEPC.H2O to obtain the experimental group RNA and control group RNA. Both groups were stored at −80° C.
(§3) The OD value of RNA samples in both groups obtained from the above Experiment I were measured at a wavelength of 260 nm (RNA: OD260=1 for a 40 μg/mL solution). Each RNA sample (2 μl) was added with RNA-free water until the volume of the sample reached 10 μl. Two μl oligo (dT) (100 μg/ml) was added into each sample, and the samples were incubated at 65° C. for 5 minutes. Then, the samples were immediately placed on ice and spun down. Next, 6.5 μl of a reaction solution [4 μl of 5× buffer+1 μl of 0.1 M DTT+1 μl of RNase out+0.5 μl of SSIII (Invitrogen)] was added into each of the samples, and the samples were incubated at 50° C. for about 30 to 60 minutes and at 75° C. for 15 minutes to obtain the experimental group cDNA and control group cDNA. Both groups were stored at −80° C.
(§4) This experiment was used to detect the expression levels of ES cell-related genes, i.e., Oct4 and Sox2, etc. […] The cycle threshold (CT) values were measured.

For another experiment, the system named is iPS cells. The experiment can be described thus: Embryoid body formation and differentiation of the generated iPS cells. As to conditions: iPS cells (T+P), BP10 medium, Tuj1, α-SMA, Gata4 staining. The method, then:
An experimental group medium (BP10) was used to culture ES cells with an initial density of 1×10^4 per well in a 6-well culture dish. The ES cells were passaged 3 times and incubated for another 2 to 3 days in the Ultra Low Cluster Plate (Costar) containing the embryoid body formation medium [DMEM+20% FBS+β-mercaptoethanol (1 mM)+1% L-glutamine+1% NEAA], and then the embryoid body formation was observed. The embryoid bodies were placed into another 24-well culture dish (5 to 6 embryoid bodies/well) and incubated for another 3 days. Next, immunofluorescence staining was conducted to detect cells with an anti-Tuj1 antibody (ectoderm marker), an anti-α-SMA antibody (mesoderm marker) and an anti-Gata4 antibody (endoderm marker).
In addition, the iPS cells (T+P) were cultured by the steps shown in Example 7 to observe the embryoid body formation and differentiation.

Another experiment concerns Sox2. The experiment can be described thus: Real-time PCR, Sox2 gene expression in ES cells. As to conditions: for Sox2 gene expression level: ES cells, control group = 100%. The procedure: as §1, §2, §3, §4
(Quantitative PCR measures a nucleic acid by following its amplification.)

[1] abbreviates: BP10 medium (about 10 μg BP/ml).
[2] abbreviates: BP20 medium (about 20 μg BP/ml).
Setting [3] is: BP40 medium (about 40 μg BP/ml).
[4] abbreviates: BP-containing ES cell culture medium vs control group, result in words.

For the compound `CCCC=C1OC(=O)c2ccccc21` [BP, n-butylidenephthalide], the “Oct4 gene expression level” value with Oct4 (BP5 medium (about 5 μg BP/ml)) is 119%; with Oct4 (setting [1]), 419%; with Oct4 (setting [2]), 258%; with Oct4 (setting [3]) it was 144%. The “gene expression level of Oct4” value with Oct4 (setting [4]) was “significantly up-regulated”. Further, the “embryoid body formation and differentiation of the iPS cells” value in the experiment on iPS cells is reported as “can differentiate into three germ layer cells”. The “Sox2 gene expression level” value in the experiment with Sox2 (BP5 medium (about 5 μg BP/ml)) came to 91%; in the experiment with Sox2 (setting [1]), 245%; with Sox2 (setting [2]) it was 210%; in the experiment on Sox2 (setting [3]), 140%. Further, in the experiment on Sox2 (setting [4]), the “gene expression level of Sox2” value was “significantly up-regulated”.
